Data from US20140335180A1, “PRODUCTS FOR ORAL ADMINISTRATION COMPRISING EXTRACTS OF PUNICA GRANATUM (POMEGRANATE), INTENDED FOR A PET, AND APPLICATIONS OF SAME” (VIRBAC SA, priority 2011, published 2014).
Where “and” joins values, the source holds several entries; their conditions need not be identical. Identical values can stand only once. Entries after “also recorded” stand apart in the source; their conditions may differ.

Key:
CnAOEC cells [1] = test: 3H-thymidine proliferation test in canine aortic endothelial cells; assay type: cell-based; settings: for effect on CnAOEC cell proliferation: reference substances, phase 1, 48 hours exposure
Procedure: The cells are cultured in a culture medium containing CECGM (Canine Endothelial Cell Growth Medium) growth factors and previously coated with AFS (Attachment Factor Solution) agent to assist with the adherence thereof.
The confluent CnAOEC cell cultures were re-inoculated in 96-well culture plates (10,000 cells per […]). Six hours after the inoculation thereof, the cells were exposed to ^3H-thymidine (final concentration: 1 μCi/ml) and to the respective test agents for 48 hours, and were subjected to two washing steps with PBS. After a treatment with trypsin and a freeze-thaw cycle, the DNA incorporating ^3H-thymidine was captured on a glass fiber filter using a “Betaplate™ 96-bien-Cell Harvester” (Wallac, Turku).
The quantities of ^3H-thymidine incorporated in the control cells (without adding test agent) were defined as 100% and the results were expressed as a function of these control cells.
The soy isoflavones were solubilized in DMSO. The experimental samples, and those of the respective controls (DMSO free from test substance) contained a final DMSO concentration of 1%.
The statistical evaluation is based on three or four separate experiments, each being performed with 2 to 4 independent wells.

DPPH antioxidant test = assay type: biochemical
Procedure: The absorbance of the mixture is read at 540 nm every 5 minutes for 30 minutes at ambient temperature. After reduction, the color of the solution disappears (change from a violet color to a light yellow color). The reduction (referred to herein as “inhibition” or “quenching”) percentage reflects the free radical scavenging capacity of the test sample. Trolox is also used as a positive control. The results are given as a DPPH radical inhibition percentage.

CnAOEC cells [2] = test: Protection of CnAOEC cells against H2O2 oxidative stress, MTT viability; assay type: cell-based, canine; settings: 2 mM H2O2; for protective effect on CnAOEC cell viability: 50 μg/ml; for protective effect on CnAOEC cell viability against H2O2: 1 to 250 μg/ml
Procedure: The plates are then centrifuged, and the formazan resulting from the reaction with MTT is solubilized in DMSO. The absorbance is measured at 570 nm, with a correction at 690 nm. The ability of the natural substances to protect cells against the adverse effects of oxidative stress was evaluated in CnAOEC cells. […] After the pretreatment period, the cells were subjected to oxidative stress (2 mM H2O2) for 24 hours and the cell viability was evaluated using the MTT test as described above. For this test, the data are means obtained from eight different experiments±Standard Deviation (SD). They were analyzed statistically using a one-way ANOVA Student t-test. The differences were considered to be significant when p<0.05.

[3] = Trolox Equivalent Antioxidant Capacity (TEAC) assay; assay type: biochemical; settings: for ABTS radical inhibition: Table A, 50 μg/ml and 250 μg/ml where stated
Procedure: This method is based on the ability of antioxidant molecules to inactivate ABTS° ^+ radical with a long lifetime, compared to Trolox, a water-soluble vitamin E analog, used as the positive control. ABTS° ^+ radical is blue-green chromophore with a characteristic absorption at 734 nm.
The samples of the test substances and Trolox are diluted in PBS buffer to obtain the chosen concentrations, Then, 200 μl of ABTS° ^+ at a concentration of 7 mM is added to 50 μl of sample or Trolox solution in 96-well plates.
The absorbance of the various samples is read every 2 minutes for 6 minutes (incubation time) at ambient temperature. The results are given as a percentage of ABTS radical inhibition, and as Trolox equivalent (μM).

CnAOEC cells [4] = test: 3H-thymidine DNA fragmentation apoptosis test in canine aortic endothelial cells; assay type: cell-based; settings: for inhibition of the pro-apoptotic effects of free fatty acids: linoleic acid or γ-linolenic acid plus antioxidant, FIGS. 3 and 4; for effect on CnAOEC cell apoptosis: reference substances, phase 1, 24 hours exposure
Procedure: The 60 mm plates containing semi-confluent CnAOEC cells were labeled with ^3H-thymidine (1 μCi/ml) for 36 hours. These cells were then inoculated in 24-well culture plates (50,000 cells/well). After the exposure thereof to the agents under test (24 hours), the cells were treated with a lysis buffer (20 mmol/1 TrisHCl, pH 7.5, and 0.4% of Triton X-100 in PBS). The radiolabeled fragmented (apoptotic) DNA present in the supernatant was counted using a liquid scintillation analyzer. The results were then correlated with the total radioactivity incorporated in the cells (quantified after digestion of the remaining suspension with 180 μg/ml of DNase). The values calculated for the control cells (without adding test agent) were set at 100% and the results were expressed as a function of these control cells. Each time the reference substances were dissolved in ethanol (final concentration 1.5%), an identical quantity of ethanol was added to all the other wells, including the control wells.
The apoptosis tests were conducted with radiolabeled CnAOEC cells, at 60% confluence and in culture dishes previously treated with fibronectin.
The statistical evaluation is based on three separate experiments, each being performed with 2 to 4 independent wells.
The modulation of CnAOEC cell apoptosis (variation measured as a % relative to the control set at 100%) is performed in comparison to the reference substance glutathione (GSH).

CnAOEC cells [5] = assay type: cell-based, canine; settings: dog, 24 h, 60 µM
Procedure: The MTT test was used for evaluating the viability of CNAOEC cells exposed to cytotoxic treatments (60 μM of digitonin or addition between 0.1% and 20% of DMSO or at increasing concentrations (ranging from 0.5 mM to 16 mM) of H2O2 for 24 hours so as to induce oxidative stress.
In this test, the cell damage is evaluated 24 hours after treatment with the cytotoxic substance by means of a 4-hour incubation with MTT at 0.5 mg/ml, 37° C. and 5% CO2. The plates are then centrifuged, and the formazan resulting from the reaction with MTT is solubilized in DMSO. The absorbance is measured at 570 nm, with a correction at 690 nm.
The MTT test was chosen to measure the cell viability on the basis of the data obtained after treating the cell with 60 μm digitonin (73% reduction±10%) and with 10% and 20% DMSO.
The damage to the CnAOEC cells caused by free radicals is obtained from a treatment with H2O2 at a concentration range from 0.5 mM to 16 mM.

[6] = humans; cited from earlier work
[7] = dogs; cited from earlier work

C[N+](C)(C)C[C@H](O)CC(=O)[O-].O=C(O)C(O)C(O)C(=O)O [L-carnitine, L-carnitine-L-tartrate]
drop in CnAOEC cell proliferation (CnAOEC cells [1]; 50 μg/ml, 48 hours): 3.75%
renewal rate (proliferation relative to control set at 100%) (CnAOEC cells [1]; 50 μg/ml, 48 hours): 96.25%
% DPPH (radical inhibition) (DPPH antioxidant test; sample 1 μg/ml): 6.74%
% DPPH (radical inhibition) (DPPH antioxidant test; sample 50 μg/ml): 4.97%
% DPPH (radical inhibition) (DPPH antioxidant test; sample 250 μg/ml): 15% and 14.94%
DPPH scavenging activity (DPPH antioxidant test; text on Table B): low
protective effect on CnAOEC cell viability (CnAOEC cells [2]): not capable of maintaining CnAOEC cell viability
protective effect on CnAOEC cell viability against H2O2 (CnAOEC cells [2]): did not display a protective effect
ABTS radical inhibition [3]: did not display any effect; also recorded: do not display any scavenging activity with ABTS
ABTS°+ inhibition % ([3]; sample 1 μg/ml): 0.45%
ABTS°+ inhibition % ([3]; sample 50 μg/ml): 0.37%
ABTS°+ inhibition % ([3]; sample 250 μg/ml): 0.92%

CC(=O)N[C@@H](CS)C(=O)O [N-acetylcysteine]
inhibition of the pro-apoptotic effects of free fatty acids (CnAOEC cells [4]): not completely inhibited
effect on CnAOEC cell apoptosis (CnAOEC cells [4]): inhibit apoptosis in CnAOEC cells significantly; also recorded: cell apoptosis is inhibited

NCCS(=O)(=O)O [Taurine, taurine]
drop in CnAOEC cell proliferation (CnAOEC cells [1]; 50 μg/ml, 48 hours): 4%
% DPPH (radical inhibition) (DPPH antioxidant test; sample 1 μg/ml): 4.95%
% DPPH (radical inhibition) (DPPH antioxidant test; sample 50 μg/ml): 10.84%
% DPPH (radical inhibition) (DPPH antioxidant test; sample 250 μg/ml): 25.09%
% DPPH (radical inhibition) (DPPH antioxidant test; sample 250 μg/ml, listed as taurine): 24%
protective effect on CnAOEC cell viability (CnAOEC cells [2]): not capable of maintaining CnAOEC cell viability
protective effect on CnAOEC cell viability against H2O2 (CnAOEC cells [2]): did not display a protective effect
ABTS radical inhibition [3]: did not display any effect; also recorded: do not display any scavenging activity with ABTS
ABTS°+ inhibition % ([3]; sample 1 μg/ml): −0.50%
ABTS°+ inhibition % ([3]; sample 50 μg/ml): −0.69%
ABTS°+ inhibition % ([3]; sample 250 μg/ml): −0.62%

Cc1c(C)c2c(c(C)c1O)CCC(C)(C(=O)O)O2 (stereo not drawn) [Trolox, reference compound]
% DPPH (radical inhibition) (DPPH antioxidant test; 5 μM): 4.21%
% DPPH (radical inhibition) (DPPH antioxidant test; 10 μM): 9.91%
% DPPH (radical inhibition) (DPPH antioxidant test; 15 μM): 17.00%
% DPPH (radical inhibition) (DPPH antioxidant test; 20 μM): 23.49%
% DPPH (radical inhibition) (DPPH antioxidant test; 25 μM): 28.6%
% DPPH (radical inhibition) (DPPH antioxidant test; 30 μM): 33.06%
% DPPH (radical inhibition) (DPPH antioxidant test; 40 μM): 41.18%

C[C@@H]1CC[C@@]2(OC1)O[C@H]1[C@@H](O)[C@H]3[C@@H]4CC[C@H]5C[C@@H](O[C@@H]6O[C@H](CO)[C@H](O[C@@H]7O[C@H](CO)[C@@H](O)[C@H](O[C@@H]8OC[C@@H](O)[C@H](O)[C@H]8O)[C@H]7O[C@@H]7O[C@H](CO)[C@H](O)[C@H](O[C@@H]8O[C@H](CO)[C@@H](O)[C@H](O)[C@H]8O)[C@H]7O)[C@H](O)[C@H]6O)[C@H](O)C[C@]5(C)[C@H]4CC[C@]3(C)[C@H]1[C@@H]2C [digitonin]
reduction of cell viability (MTT) (CnAOEC cells [5]): 73%

O=c1oc2c(O)c(O)cc3c(=O)oc4c(O)c(O)cc1c4c23 [ellagic acid]
plasma concentration after dietary supplementation with pomegranate extract [6]: approximately 10 μg/ml

O=c1c(-c2ccc(O)cc2)coc2cc(O)cc(O)c12 [genistein]
plasma concentrations after oral supplementation [7]: ≤ 5 µg/mL

N[C@@H](CCC(=O)N[C@@H](CS)C(=O)NCC(=O)O)C(=O)O [glutathione]
inhibition of the pro-apoptotic effects of free fatty acids (CnAOEC cells [4]): not completely inhibited
effect on CnAOEC cell apoptosis (CnAOEC cells [4]): inhibit apoptosis in CnAOEC cells significantly; also recorded: cell apoptosis is inhibited
proliferation, % of the control (CnAOEC cells [1]; 10 mmol/l, positive control): 54.75%
effect on CnAOEC cell proliferation (CnAOEC cells [1]): reduce CnAOEC cell proliferation considerably

CCCCC/C=C\C/C=C\CCCCCCCC(=O)O [linoleic acid, reference compound]
effect on CnAOEC cell apoptosis (CnAOEC cells [4]): very strong pro-apoptotic reaction
effect on CnAOEC cell proliferation (CnAOEC cells [1]): inhibit endothelial proliferation completely; also recorded: reduce CnAOEC cell proliferation considerably

CCCCC/C=C\C/C=C\C/C=C\CCCCC(=O)O [γ-linolenic acid, reference compound]
effect on CnAOEC cell apoptosis (CnAOEC cells [4]): very strong pro-apoptotic reaction
effect on CnAOEC cell proliferation (CnAOEC cells [1]): inhibit endothelial proliferation completely; also recorded: reduce CnAOEC cell proliferation considerably

VEGF
effect on CnAOEC cell proliferation (CnAOEC cells [1]): no pro-proliferation effect on CnAOEC cells; also recorded: did not induce the same response in CnAOEC cells; also recorded: have no influence on CnAOEC cell proliferation

bFGF: basic Fibroblast Growth Factor, vascular growth factor reference
effect on CnAOEC cell proliferation (CnAOEC cells [1]): no pro-proliferation effect on CnAOEC cells; also recorded: did not induce the same response in CnAOEC cells; also recorded: have no influence on CnAOEC cell proliferation
